Experimental data published in ChEMBL document CHEMBL4371054, “Dual inhibition of Kif15 by oxindole and quinazolinedione chemical probes” (Bioorg Med Chem Lett, 2019).
Activity calls are given as the source filed them. No cut-off for these calls is given here.

Experiments:
[1] = target: T1, Kinesin-like protein KIF15 (Homo sapiens) (UniProt Q9NS87); test: Inhibition of Kif15 in TP53-deficient human RPE1 cells assessed as reduction in Kif15 level at 25 uM after 24 hrs by Western blot analysis relative to control
T1 sequence (whole entry): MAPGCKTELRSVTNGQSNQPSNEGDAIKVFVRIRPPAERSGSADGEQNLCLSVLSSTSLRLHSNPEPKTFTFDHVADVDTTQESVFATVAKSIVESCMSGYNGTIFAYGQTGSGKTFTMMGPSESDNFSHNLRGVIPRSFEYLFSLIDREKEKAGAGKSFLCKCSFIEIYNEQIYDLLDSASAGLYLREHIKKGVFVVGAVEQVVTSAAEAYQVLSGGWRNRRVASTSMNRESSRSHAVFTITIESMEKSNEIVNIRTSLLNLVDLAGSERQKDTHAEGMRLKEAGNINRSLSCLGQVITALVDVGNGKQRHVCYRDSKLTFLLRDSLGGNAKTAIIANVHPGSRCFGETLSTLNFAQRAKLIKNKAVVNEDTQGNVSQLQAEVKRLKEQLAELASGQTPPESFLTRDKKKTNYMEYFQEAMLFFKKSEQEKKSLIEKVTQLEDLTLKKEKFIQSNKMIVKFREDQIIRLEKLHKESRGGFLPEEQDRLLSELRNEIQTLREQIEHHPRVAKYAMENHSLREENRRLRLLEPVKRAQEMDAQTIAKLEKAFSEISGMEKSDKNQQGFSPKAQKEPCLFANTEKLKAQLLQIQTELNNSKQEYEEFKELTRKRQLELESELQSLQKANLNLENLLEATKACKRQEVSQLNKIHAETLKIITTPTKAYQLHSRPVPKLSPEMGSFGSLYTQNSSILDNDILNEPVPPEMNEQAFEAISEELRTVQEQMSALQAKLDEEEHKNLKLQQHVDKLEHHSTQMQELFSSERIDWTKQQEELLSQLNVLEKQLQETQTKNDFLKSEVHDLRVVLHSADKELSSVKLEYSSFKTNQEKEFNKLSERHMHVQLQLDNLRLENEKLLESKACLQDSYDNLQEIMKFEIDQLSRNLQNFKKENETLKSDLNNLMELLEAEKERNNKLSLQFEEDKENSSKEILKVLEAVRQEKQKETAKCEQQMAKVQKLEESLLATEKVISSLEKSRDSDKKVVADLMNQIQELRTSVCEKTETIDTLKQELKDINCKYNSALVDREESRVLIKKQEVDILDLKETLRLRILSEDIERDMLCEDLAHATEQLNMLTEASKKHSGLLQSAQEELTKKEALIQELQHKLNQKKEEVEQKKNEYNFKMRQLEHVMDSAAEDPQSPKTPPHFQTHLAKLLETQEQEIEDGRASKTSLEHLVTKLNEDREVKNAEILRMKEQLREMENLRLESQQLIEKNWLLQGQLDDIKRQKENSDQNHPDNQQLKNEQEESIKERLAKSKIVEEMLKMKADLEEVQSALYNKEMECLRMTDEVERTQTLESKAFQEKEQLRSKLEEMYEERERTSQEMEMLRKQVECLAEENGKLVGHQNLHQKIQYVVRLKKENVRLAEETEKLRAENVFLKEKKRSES

[2] = target: T2, Kinesin-like protein KIF18A (Homo sapiens) (UniProt Q8NI77); test: Inhibition of Kif18A (unknown origin) assessed as reduction in Alexa-594 labelled microtubule gliding at 30 uM measured every 2 secs for 20 secs by epifluorescence microscopic analysis relative to control
T2 sequence (whole entry): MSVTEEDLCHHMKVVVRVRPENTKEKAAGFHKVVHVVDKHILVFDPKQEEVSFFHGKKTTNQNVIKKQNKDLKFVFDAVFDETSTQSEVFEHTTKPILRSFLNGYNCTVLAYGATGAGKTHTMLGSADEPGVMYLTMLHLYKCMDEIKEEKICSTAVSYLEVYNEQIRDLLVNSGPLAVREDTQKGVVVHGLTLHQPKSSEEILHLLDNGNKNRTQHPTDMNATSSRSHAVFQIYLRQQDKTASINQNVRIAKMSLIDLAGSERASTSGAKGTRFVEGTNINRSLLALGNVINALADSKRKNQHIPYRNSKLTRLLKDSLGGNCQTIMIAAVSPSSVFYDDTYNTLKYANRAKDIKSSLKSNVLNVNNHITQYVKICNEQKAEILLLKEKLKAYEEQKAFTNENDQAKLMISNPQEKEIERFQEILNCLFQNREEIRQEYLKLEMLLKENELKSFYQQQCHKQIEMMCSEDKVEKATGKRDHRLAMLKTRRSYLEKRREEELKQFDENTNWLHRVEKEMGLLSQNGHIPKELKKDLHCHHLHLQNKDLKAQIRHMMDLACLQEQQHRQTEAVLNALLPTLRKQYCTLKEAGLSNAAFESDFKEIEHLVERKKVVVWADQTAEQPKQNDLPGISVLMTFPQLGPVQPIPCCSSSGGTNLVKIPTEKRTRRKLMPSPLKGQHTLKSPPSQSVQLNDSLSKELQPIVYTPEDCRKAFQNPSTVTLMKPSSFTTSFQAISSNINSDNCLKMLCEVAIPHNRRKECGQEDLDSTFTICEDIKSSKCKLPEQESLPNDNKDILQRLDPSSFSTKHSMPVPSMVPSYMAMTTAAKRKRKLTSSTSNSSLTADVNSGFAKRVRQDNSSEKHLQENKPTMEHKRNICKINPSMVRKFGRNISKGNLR

[3] = target: T1, Kinesin-like protein KIF15 (Homo sapiens); test: Inhibition of Kif15 in K51-resistant human KIRC1 cells assessed as cells with monopolar spindles at 25 uM after 24 hrs by Hoechst 33342 staining based immunofluorescence microscopic analysis (reference value: 43 to 49%); design: scale not given: the % may be the effect or the level left
[4] = target: T1, Kinesin-like protein KIF15 (Homo sapiens); test: ATP non-competitive inhibition of recombinant His6-tagged Kif15 ATPase activity (N700 residues) (unknown origin) expressed in HeLa cells at 0.5 to 2 uM using microtubule as substrate preincubated for 30 mins followed by varying levels of ATP addition by double reciprocal Lineweaver-Burk plot analysis

O=C1Nc2ccc(C(=O)c3ccco3)cc2/C1=C/c1cc(Cl)c(O)c(Cl)c1
inhibition [1]: 60%
inhibition [2]: 4.9%
Activity [3]: 95%
inhibition [4]: Active
